The values that follow come from US11331290B2, “Niclosamide for the treatment of cancer metastasis” (Max-Delbrück-Centrum für Molekulare Medizin in der …, priority 2011, dated 2022).

Experiment [1] deals with SW620, LS174T, SW480 and DLD-1 cells. Description: Anchorage-dependent cell proliferation (MTT). Conditions: all four cell lines, 1 μM daily. Type of experiment: cell-based, human. How it is done: For cell proliferation determination of HCT116, SW620, LS174T, SW480 and DLD-1 cells 2×10^3 cells were seeded in 96-well-plates (for each day one plate) and were given 24 hours to attach to the bottom of the well. Cells were from then on treated daily with 1 μM niclosamide or the respective amount of DMSO. For determination of viable cells 3-(4,5-dimethyl-2-thiazol)-2,5-diphenyl-2H-tetrazolium bromide (MTT; Sigma) was added to a final concentration of 0.5 mg per mL and incubated for 3 hours at 37° C. and 5% CO2 in a humidified incubator. […] Crystallized MTT was resolved by 10% SDS in 10 mM HCl and the absorption was measured at 560 nm. […] The average MTT metabolisation was determined of two independent experiments each performed in triplicate.
(A) S100A4 expression under niclosamide treatment. […] S100A4 expression was analyzed with qRT-PCR and immunoblot. […] Migration rates of cells treated with 1 μM niclosamide for 24 hours were determined in a Boyden chamber assay values were normalized to solvent-treated SW620 cells. […] Invaded cells in the lower chamber were counted and normalized to solvent-treated SW620 cells. Differences in solvent vs. niclosamide-treated cells were analyzed by Student's t test. […] The amount of viable cells per well was determined by MTT assay. […] (G) Quantification of colonies formed. Number of colonies (of more than 4 cells) was counted and normalized to solvent-treated SW620 cells. […]

Experiment [2] relates to WNT/CTNNB1 pathway (LEF/TCF transcription factor reporter). Description: WNT/CTNNB1 pathway activity reporter assay (TOP/FOPflash). Type of experiment: cell-based, human. The following applies: 24 h. An excerpt:
The lymphoid enhancer-binding factor 1 (LEF)/transcription factor (TCF) activity reporter assay, also known as TOP/FOPflash assay (Promega, Madison, Wis.) was previously used to analyze the WNT/CTNNB1 pathway activity in human colon cancer cells (24). It comprises the TOPflash plasmid which contains a hexameric repetition of the LEF/TCF-binding element upstream of a thymidine kinase (TK) promoter and firefly luciferase as reporter gene. The FOPflash plasmid comprised the exact sequence of the TOPflash plasmid, but with point mutated LEF/TCF-binding sites. In the assay, 8×10^4 HCT116 cells were plated in 24-well-plates and were given 15 hours to attach to the bottom of the well. Cells were transfected with TOPflash or FOPflash plasmids using Metafecten according to the manufacturer's instruction 24 hours before they were treated with 1 μM niclosamide or the respective amount of DMSO for another 24 hours. Luciferase activity as read out for LEF/TCF activity and thus WNT/CTNNB1 pathway activity was measured by the Steady Glow™ Luciferase Assay System (Promega) according to the manufacturer's instructions in the luminescence reader SpectraFluor Plus (Tecan) with 1500 milliseconds exposure time and a gain of 150. TOPflash reporter gene expression (representing the WNT pathway activity) was normalized to FOPflash reporter gene expression (representing basal reporter gene expression and transfection efficiency). The average of three independent experiments is given here, whereas each experiment was performed in duplicate.
For WNT pathway analysis the following cells were applied: HCT116 cells (heterozygous for gain-of-function-mutated CTNNB1; wt/mut), HAB-68mut cells (deletion mutant of HCT116, expressing only gain-of-function-mutated CTNNB1: −/mut) and HAB-92 wt cells (deletion mutant of HCT116, expressing only wild-type CTNNB1: wt/−). (A) CTNNB1 genotype dependent effect of niclosamide on LEF/TCF transcription factor reporter gene expression. Cells were treated with 1 μM niclosamide for 24 hours. Reporter gene expression was determined by luciferase activity measurement. For each condition and cell line TOPflash expression was normalized to FOPflash expression. (B) CTNNB1 genotype dependent effect of niclosamide on S100A4 expression. Cells were treated with 1 μM niclosamide for 24 hours. S100A4 expression was analyzed by qRT-PCR and immunoblot. (C) CTNNB1 genotype dependent effect of niclosamide on migration rates. Cells were treated with 1 μM niclosamide for 24 hours and cell migration was determined by Boyden chamber assay. Data represents mean±SE of at least three independent experiments. Differences were analyzed by Student's t test (n.s.; not statistically significant). (D) Nuclear localization of CTNNB1 under niclosamide treatment. Nuclear extracts of HCT116 cells treated with the indicated concentrations of niclosamide for 18 hours were analyzed by immunoblot. (E) Effect of niclosamide on CTNNB1/TCF complex. Nuclear extracts of HCT116 cells treated with the indicated concentrations of niclosamide for 18 hours were analyzed by EMSA for the TCF-binding site of the S100A4 promoter. Supershift was performed by addition of a monoclonal anti-CTNNB1 antibody. (F) Presence of CTNNB1 on the S100A4 promoter under niclosamide treatment. HCT116 cells were treated with 1 μM niclosamide for 18 hours and processed for ChIP assay. Soluble chromatin was immunoprecipitated with a monoclonal anti-CTNNB1 antibody or a nonspecific control IgG antibody. Primers used in PCR amplified a 167 bp fragment of the S100A4 promoter or 149 bp fragment of the FOS promoter. The input verified the integrity of the PCR. […] Data shown are representatives of at least two independent experiments.

Regarding `O=C(Nc1ccc([N+](=O)[O-])cc1Cl)c1cc(Cl)ccc1O` [niclosamide, 2′,5-dichloro-4′-nitrosalicylanilide], the anchorage-dependent cell proliferation entry in experiment [1] is given as “inhibited”. Further, the “WNT pathway activity, mean difference control vs niclosamide” value in experiment [2] (HAB-68mut, 1 μM) turned out to be 0.90; in experiment [2] (HAB-92 wt, 1 μM), 0.15; in experiment [2] (HCT116, 1 μM), 0.61. Besides, the “WNT pathway activity (TOPflash normalized to FOPflash), mean” value in experiment [2] (HAB-68mut, 1 μM, control 1.39) is on record as 0.50; in experiment [2] (HAB-92 wt, 1 μM, control 0.36) it was 0.21; in experiment [2] (HCT116, 1 μM, control 1.00) it was 0.39.
